# According to patent US20200207734A1, “HETEROCYCLIC COMPOUND AND USE THEREOF” (Takeda Pharmaceutical Company Limited, priority 2017, published 2020):
# Biological target: T1, human orexin type 2 receptor (Homo sapiens, UniProt O43614)
# T1 construct: human orexin type 2 receptor cDNA was inserted into pcDNA3.1(+) plasmid vector (Invitrogen); expressed in transfected cells
# T1 sequence (O43614 1-444): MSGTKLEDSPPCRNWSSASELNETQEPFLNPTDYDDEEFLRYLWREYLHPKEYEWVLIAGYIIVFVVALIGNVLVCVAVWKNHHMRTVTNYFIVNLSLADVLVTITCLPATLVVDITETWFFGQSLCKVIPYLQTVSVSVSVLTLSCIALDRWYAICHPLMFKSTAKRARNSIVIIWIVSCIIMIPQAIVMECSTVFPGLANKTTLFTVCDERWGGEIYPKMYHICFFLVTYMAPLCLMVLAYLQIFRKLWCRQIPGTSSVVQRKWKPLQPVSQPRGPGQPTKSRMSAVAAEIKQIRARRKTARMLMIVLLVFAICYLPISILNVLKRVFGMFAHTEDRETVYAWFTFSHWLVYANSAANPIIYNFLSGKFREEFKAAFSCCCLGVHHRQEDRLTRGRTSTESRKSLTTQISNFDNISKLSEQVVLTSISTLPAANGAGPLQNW
# Experiment: Measurement of orexin type 2 receptor agonist activity (calcium fluorescence, CHO cells expressing hOX2R)
# Type: cell-based
# Conditions: test compound 3 μM; CHO cells expressing human OX2 receptor; DMSO = 0%, orexin A (human) = 100%
# From the text: To obtain a cell clone stably expressing human orexin type 2 receptor, human orexin type 2 receptor cDNA was inserted into pcDNA3.1(+) plasmid vector (Invitrogen), and a plasmid DNA for expression of human orexin type 2 receptor (pcDNA3.1(+)/hOX2R) was cloned. The plasmid DNA was introduced into CHO-dhfr cell by an electroporation method, and human orexin type 2 receptor expressing clone cells were obtained by limiting dilution method by using G418 drug resistance as a selection marker.
# CHO cells forcibly expressing human OX2 receptor were seeded in each well of 384 well black transparent bottom plate (BD Falcon) at 7,500 cells/well, and cultured for one day in a 5% CO2 incubator at 37° C. After removal of the medium in the cell plate, assay buffer A containing a calcium indicator (HBSS (Thermo Fisher Scientific), 20 mM HEPES (Thermo Fisher Scientific), 0.1% BSA (Wako Pure Chemical Industries, Ltd. or Sigma-Aldrich), 2.5 μg/mL Fluo-4 AM (DOJINDO Chemical), 0.08% Pluronic F127 (DOJINDO Chemical), 1.25 mM probenecid (DOJINDO Chemical)) was added at 30 μL/well. The plate was stood for 30 min in a 5% CO2 incubator at 37° C., and further stood at room temperature for 30 min. A test compound prepared by diluting with assay buffer B (HBSS, 20 mM HEPES, 0.1% BSA) was added at 10 μL/well, and the fluorescence value was measured by FDSSμCELL (Hamamatsu Photonics K.K.) every one sec for 1 min, and thereafter every two sec for 1 min 40 sec. The activity (%) of the test compound was calculated assuming that variation in the fluorescence value when DMSO was added instead of the test compound was 0%, and variation in the fluorescence value when orexin A (human) (PEPTIDE INSTITUTE, INC.) was added at the final concentration of 10 nM was 100%.
row,SMILES,"OX2R agonist activity (3 μM, %)"
1,"COC(=O)N1CCC[C@H](NS(C)(=O)=O)[C@@H]1Cc1ccc(F)c(-c2ccccc2)c1 (relative stereo) [Example 41, methyl cis-2-((6-fluorobiphenyl-3-yl)methyl)-3-((methylsulfonyl)amino)piperidine-1-carboxylate]",67%
2,"CC(C)OC(=O)N1CCC[C@H](NS(C)(=O)=O)[C@@H]1Cc1cccc(-c2ccccc2)c1 (relative stereo) [Example 50, isopropyl cis-2-(biphenyl-3-ylmethyl)-3-((methylsulfonyl)amino)piperidine-1-carboxylate]",97%
3,"COC(=O)N1CCC[C@H](NS(C)(=O)=O)[C@@H]1Cc1cccc(-c2ccc3c(cnn3C)c2)c1 (relative stereo) [Example 53, methyl cis-2-(3-(1-methyl-1H-indazol-5-yl)benzyl)-3-((methylsulfonyl)amino)piperidine-1-carboxylate]",72%
4,"C=C(C)c1cccc(C[C@H]2[C@@H](NS(C)(=O)=O)CCCN2C(=O)OC)c1 (relative stereo) [Example 55, methyl cis-3-((methylsulfonyl)amino)-2-(3-(prop-1-en-2-yl)benzyl)piperidlne-1-carboxylate]",84%
5,"COC(=O)N1CCC[C@H](NS(C)(=O)=O)[C@@H]1Cc1cccc(C2CCC2)c1 (relative stereo) [Example 60, methyl cis-2-(3-cyclobutylbenzyl)-3-((methylsulfonyl)amino)piperidine-1-carboxylate]",26%
6,"COC(=O)N1CC[C@H](NS(C)(=O)=O)[C@@H]1Cc1cccc(-c2ccccc2)c1 (relative stereo) [Example 61, methyl cis-2-(biphenyl-3-ylmethyl)-3-((methylsulfonyl)amino)pyrrolidine-1-carboxylate]",74%
7,"CCNC(=O)N1CCC[C@H](NS(C)(=O)=O)[C@@H]1Cc1ccccc1Oc1ccccc1 (relative stereo) [Example 62, cis-N-ethyl-3-((methylsulfonyl)amino)-2-(2-phenoxybenzyl)piperidine-1-carboxamide]",93%
8,"CCNC(=O)N1CCC[C@H](NS(C)(=O)=O)[C@@H]1Cc1ccc(Oc2ccccc2)cc1 (relative stereo) [Example 63, cis-N-ethyl-3-((methylsulfonyl)amino)-2-(4-phenoxybenzyl)piperidine-1-carboxamide]",24%
9,"CC(C)OC(=O)N1CCC[C@H](NS(C)(=O)=O)[C@@H]1Cc1cccc(-c2ccccc2)n1 (relative stereo) [Example 64, isopropyl cis-3-((methylsulfonyl)amino)-2-((6-phenylpyridin-2-yl)methyl)piperidine-1-carboxylate]",96%
10,"CC(C)OC(=O)N1CC[C@H](NS(C)(=O)=O)[C@@H]1Cc1cccc(-c2ccccc2)c1 (relative stereo) [Example 74, isopropyl cis-2-(biphenyl-3-ylmethyl)-3-((methylsulfonyl)amino)pyrrolidine-1-carboxylate]",104%
11,"CC(C)OC(=O)N1CCC[C@H](NS(C)(=O)=O)[C@@H]1Cc1cccc2c1oc1ccccc12 (relative stereo) [Example 78, isopropyl cis-2-(dibenzo[b,d]furan-4-ylmethyl)-3-((methylsulfonyl)amino)piperidine-1-carboxylate]",35%
12,"CC(C)OC(=O)N1CCC[C@H](NS(C)(=O)=O)[C@@H]1Cc1csc(-c2ccccc2)n1 (relative stereo) [Example 89, isopropyl cis-3-((methylsulfonyl)amino)-2-((2-phenyl-1,3-thiazol-4-yl)methyl)piperidine-1-carboxylate]",96%
13,"CS(=O)(=O)N[C@H]1CCCN(C(=O)C2CC2)[C@H]1Cc1cccc(-c2ccccc2)c1 (relative stereo) [Example 93, N-(cis-2-(biphenyl-3-ylmethyl)-1-(cyclopropylcarbonyl)piperidin-3-yl)methanesulfonamide]",101%
